Experimental data taken from patent US20020045574A1, “Glycopeptide antibacterial compounds and methods of using same” (priority 2000, published 2002).

Assays:
[1] = test system: E. faecalis CL 4877 (VanB); test: Strain antibiotic susceptibility phenotype (MIC interpretive standards); format: cell-based
From the text: (§1) The test panel currently includes eight enterococci and 13 staphylococci, which are selected based upon their antibiotic susceptibility profiles. The methicillin-sensitive Staphylococcus aureus (MSSA) strain MB2985 (Smith isolate) is used to assesses the potential for serum protein binding of the compounds. The paired Gram-negative strains ASP #49 (envA−) and ASP #50 (envA+) (M. Salvatore/N. Lee) are included to judge membrane effects. Table 1 presents a detailed description of the strains included in the panel, including some of the sources of the strains of bacteria.

[2] = test system: E. faecalis CL 5244 (VanB); test: as above; format: cell-based
From the text: as §1

[3] = test system: E. faecalis MB2864; test: as above; format: cell-based
From the text: as §1

[4] = test system: E. faecium CL 4931 (VanA); test: as above; format: cell-based
From the text: as §1

[5] = test system: E. faecium CL 5053 (VanA); test: as above; format: cell-based
From the text: as §1

[6] = test system: E. faecium CL 5242 (VanA); test: as above; format: cell-based
From the text: as §1

[7] = test system: E. faecium RLA1; test: as above; format: cell-based
From the text: as §1

[8] = test system: E. gallinarum CL 4886 (VanC); test: as above; format: cell-based
From the text: as §1

[9] = test system: MRCNS (S. epi.) CL 3069; test: as above; format: cell-based
From the text: as §1

[10] = test system: MRCNS (S. haem.) CL 171; test: as above; format: cell-based
From the text: as §1

[11] = test system: MRCNS (S. haem.) CL 202; test: as above; format: cell-based
From the text: as §1

[12] = test system: MRCNS (S. hom.) CL 227; test: as above; format: cell-based
From the text: as §1

[13] = test system: MRCNS (S. hom.) CL 546; test: as above; format: cell-based
From the text: as §1

[14] = test system: MRSA CL 3033; test: as above; format: cell-based, Staphylococcus aureus
From the text: as §1

[15] = test system: MRSA COL; test: as above; format: cell-based, Staphylococcus aureus
From the text: as §1

[16] = test system: MSSA MB2985; test: as above; format: cell-based, Staphylococcus aureus
From the text: as §1

[17] = test system: VISA/MRSA CL 5705; test: as above; format: cell-based, S. aureus; details: VISA/MRSA CL 5705 (Mu 3)
From the text: as §1

[18] = test system: VISA/MRSA CL 5706; test: as above; format: cell-based, S. aureus; details: VISA/MRSA CL 5706 (Mu 50)
From the text: as §1

[19] = test system: methicillin-sensitive Staphylococcus aureus (MSSA) strain MB2985; details: due to binding of the antibiotic; cited from earlier work

CN[C@H](CC(C)C)C(=O)N[C@H]1C(=O)N[C@@H](CC(N)=O)C(=O)N[C@H]2C(=O)N[C@H]3C(=O)N[C@H](C(=O)N[C@H](C(=O)O)c4cc(O)cc(O)c4-c4cc3ccc4O)[C@H](O)c3ccc(c(Cl)c3)Oc3cc2cc(c3O[C@@H]2O[C@H](CO)[C@@H](O)[C@H](O)[C@H]2O[C@H]2C[C@](C)(N)[C@H](O)[C@H](C)O2)Oc2ccc(cc2Cl)[C@H]1O [Van, vancomycin]
R (≧32): Phenotype Van [1] | Phenotype Van [2] | Phenotype Van [4] | Phenotype Van [5] | Phenotype Van [6]
I (8-16): Phenotype Van [8] | Phenotype Van [18]
S (≦4): Phenotype Van [3] | Phenotype Van [7] | Phenotype Van [9] | Phenotype Van [10] | Phenotype Van [11] | Phenotype Van [12] | Phenotype Van [13] | Phenotype Van [14] | Phenotype Van [15] | Phenotype Van [16] | Phenotype Van [17]

CCSC1=C(C(=O)O)N2C(=O)[C@H]([C@@H](C)O)[C@H]2S1 [Schering 29482]
reduced activity: activity in the presence of Human Serum Albumin or Fraction V [19]

gentamicin
S (≦500): Phenotype Gent [2] | Phenotype Gent [3] | Phenotype Gent [7]
S (≦4): Phenotype Gent [15] | Phenotype Gent [16]
R (>500): Phenotype Gent [1] | Phenotype Gent [4] | Phenotype Gent [5] | Phenotype Gent [6] | Phenotype Gent [8]
R (≧16): Phenotype Gent [17] | Phenotype Gent [18]

CC1(C)S[C@@H]2[C@H](NC(=O)[C@H](N)c3ccccc3)C(=O)N2[C@H]1C(=O)O [Amp, ampicillin]
S (≦0.25): Phenotype Amp [16]
R (≧0.5): Phenotype Amp [14] | Phenotype Amp [15] | Phenotype Amp [17] | Phenotype Amp [18]
R (≧16): Phenotype Amp [4] | Phenotype Amp [5] | Phenotype Amp [6] | Phenotype Amp [7]
S (≦8): Phenotype Amp [1] | Phenotype Amp [2] | Phenotype Amp [3] | Phenotype Amp [8]

C[C@@H](O)[C@H]1C(=O)N2C(C(=O)O)=C(SCCN=CN)C[C@H]12 [Ipm, imipenem]
R (≧16): Phenotype Ipm [9] | Phenotype Ipm [10] | Phenotype Ipm [11] | Phenotype Ipm [12] | Phenotype Ipm [13] | Phenotype Ipm [14] | Phenotype Ipm [15] | Phenotype Ipm [17] | Phenotype Ipm [18]
S (≦4): Phenotype Ipm [16]
